Data: patent US8669249B2, “Poly (ADP-ribose) polymerase (PARP) inhibitors” (Takeda Pharmaceutical Company Limited, priority 2009, dated 2014)

What was measured:
Jurkat cell line = test: PARP cellular chemopotentiation assay (MTS, with/without TMZ); type: cell-based; conditions: Chemopotentiation factor: ratio of EC50 values of Jurkat cells co-treated without and with 100 μM TMZ; 96 hours
In short: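 Jurkat cells, 10,000/well, pre-cultured 24 h, then treated 96 h with serial compound dilutions (0.5% DMSO) with or without 100 μM TMZ. Viability by MTS conversion (OD490), normalized to DMSO controls; EC50 from curve fits, PF50 = EC50 without TMZ / EC50 with TMZ.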

PARP = target: T1, PARP (Homo sapiens, UniProt P09874); test: PARP ELISA (ELISA-based colorimetric PARP/Apoptosis Assay kit, Trevigen); type: biochemical; conditions: pIC50=-log10 IC50, IC50 in mol/L; inhibition of PARP catalytic activity
T1 construct: purchased Trevigen 4684-096-K HT (kit); 4684-096-01 (PARP enzyme)
T1 sequence (P09874 whole entry): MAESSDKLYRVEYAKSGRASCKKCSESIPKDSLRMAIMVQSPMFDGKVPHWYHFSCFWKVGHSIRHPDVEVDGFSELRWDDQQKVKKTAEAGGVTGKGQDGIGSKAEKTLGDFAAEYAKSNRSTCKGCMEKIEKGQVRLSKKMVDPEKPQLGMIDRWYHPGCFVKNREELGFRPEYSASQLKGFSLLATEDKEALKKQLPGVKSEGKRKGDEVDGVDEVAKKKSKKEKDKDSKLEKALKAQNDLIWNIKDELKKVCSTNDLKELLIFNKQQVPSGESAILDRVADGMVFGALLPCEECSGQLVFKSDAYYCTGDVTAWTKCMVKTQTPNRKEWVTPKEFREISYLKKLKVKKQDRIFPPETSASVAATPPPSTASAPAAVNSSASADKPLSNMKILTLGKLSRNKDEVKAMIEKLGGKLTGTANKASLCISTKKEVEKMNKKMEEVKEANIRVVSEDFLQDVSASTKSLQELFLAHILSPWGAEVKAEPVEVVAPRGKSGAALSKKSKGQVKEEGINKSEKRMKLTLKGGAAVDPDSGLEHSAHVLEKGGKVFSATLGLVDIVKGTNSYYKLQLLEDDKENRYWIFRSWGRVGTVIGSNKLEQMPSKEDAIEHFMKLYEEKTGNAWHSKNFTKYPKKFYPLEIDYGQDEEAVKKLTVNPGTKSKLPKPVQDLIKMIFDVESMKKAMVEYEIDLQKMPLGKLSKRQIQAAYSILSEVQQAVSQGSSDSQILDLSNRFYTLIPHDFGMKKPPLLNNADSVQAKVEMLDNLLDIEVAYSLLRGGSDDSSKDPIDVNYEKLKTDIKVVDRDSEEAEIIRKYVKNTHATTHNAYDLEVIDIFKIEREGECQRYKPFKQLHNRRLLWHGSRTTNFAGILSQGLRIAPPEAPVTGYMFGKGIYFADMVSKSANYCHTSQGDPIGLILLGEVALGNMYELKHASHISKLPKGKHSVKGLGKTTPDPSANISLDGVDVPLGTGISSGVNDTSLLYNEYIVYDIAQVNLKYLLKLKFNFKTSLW
In short: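 Quenched after 10 min catalysis by aspiration and four PBS/0.1% Triton X-100 washes. Poly(ADP-ribose) detected with mouse anti-PAR monoclonal antibody, goat anti-mouse IgG-HRP and HRP substrate; colorimetric signal proportional to PARP catalytic activity.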

`CCNC(=O)c1ccc(N2CCN(Cc3cc4c(c(C5CC5)c3)OC(C)C(=O)N4)CC2)cc1` (centres unmarked) [Compound 346, 4-(4-((8-Cyclopropyl-2-methyl-3-oxo-3,4-dihydro-2H-benzo[b][1,4]oxazin-6-yl)methyl)piperazin-1-yl)-N-ethylbenzamide] was tested, and the PF50 (Jurkat cell line) was 8.6 and the IC50 (PARP) was 100 nM.

Compound `CNC(=O)c1ccc(N2CCN(Cc3cc4c(c(C5CC5)c3)OC(C)C(=O)N4)CC2)cc1` (centres unmarked) [Compound 347, 4-(4-((8-Cyclopropyl-2-methyl-3-oxo-3,4-dihydro-2H-benzo[b][1,4]oxazin-6-yl)methyl)piperazin-1-yl)-N-methylbenzamide] has a PF50 (Jurkat cell line) of 10.1 and an IC50 (PARP) of 100 nM.

`CC1Oc2c(cc(CN3CCN(c4ccc(C(=O)NC5CC5)cc4)CC3)cc2C2CC2)NC1=O` (centres unmarked) [Compound 348, N-Cyclopropyl-4-(4-((8-cyclopropyl-2-methyl-3-oxo-3,4-dihydro-2H-benzo[b][1,4]oxazin-6-yl)methyl)piperazin-1-yl)benzamide] showed a PF50 (Jurkat cell line) of over 5 and an IC50 (PARP) of 251 nM.

Compound `CNC(=O)c1ccc(N2CCN(Cc3cc4c(c(-c5ccccc5)c3)OC(C)C(=O)N4)CC2)cc1` (centres unmarked) [Compound 350, N-Methyl-4-(4-((2-methyl-3-oxo-8-phenyl-3,4-dihydro-2H-benzo[b][1,4]oxazin-6-yl)methyl)piperazin-1-yl)benzamide] has a PF50 (Jurkat cell line) of 2.1 and an IC50 (PARP) of over 200 nM.

`CC1Oc2c(cc(CN3CCN(c4ccc(C(=O)NC5CC5)cc4)CC3)cc2-c2ccccc2)NC1=O` (centres unmarked) [Compound 351, N-Cyclopropyl-4-(4-((2-methyl-3-oxo-8-phenyl-3,4-dihydro-2H-benzo[b][1,4]oxazin-6-yl)methyl)piperazin-1-yl)benzamide] was tested, and the PF50 (Jurkat cell line) was 1.0 and the IC50 (PARP) was over 200 nM.

`CC1Oc2c(cc(CN3CCN(c4ccc(C#N)cc4)CC3)cc2C2CC2)NC1=O` (centres unmarked) [Compound 352, 4-(4-((8-Cyclopropyl-2-methyl-3-oxo-3,4-dihydro-2H-benzo[b][1,4]oxazin-6-yl)methyl)piperazin-1-yl)benzonitrile] was tested, and the PF50 (Jurkat cell line) was 6.3 and the IC50 (PARP) was 79.4 nM.

`CNC(=O)c1ccc(N2CCN(Cc3cc(Cc4ccccc4)c4c(c3)NC(=O)C(C)O4)CC2)cc1` (centres unmarked) [Compound 353, 4-(4-((8-Benzyl-2-methyl-3-oxo-3,4-dihydro-2H-benzo[b][1,4]oxazin-6-yl)methyl)piperazin-1-yl)-N-methylbenzamide] showed a PF50 (Jurkat cell line) of 1.3 and an IC50 (PARP) of over 200 nM.

Compound `CC1Oc2c(Cc3ccccc3)cc(CN3CCN(c4ccc(C(=O)NC5CC5)cc4)CC3)cc2NC1=O` (centres unmarked) [Compound 354, 4-(4-((8-Benzyl-2-methyl-3-oxo-3,4-dihydro-2H-benzo[b][1,4]oxazin-6-yl)methyl)piperazin-1-yl)-N-cyclopropylbenzamide] has a PF50 (Jurkat cell line) of 1.0 and an IC50 (PARP) of over 200 nM.

Compound `CCNC(=O)c1ccc(N2CCN(Cc3cc(Cc4ccccc4)c4c(c3)NC(=O)C(C)O4)CC2)cc1` (centres unmarked) [Compound 355, 4-(4-((8-Benzyl-2-methyl-3-oxo-3,4-dihydro-2H-benzo[b][1,4]oxazin-6-yl)methyl)piperazin-1-yl)-N-ethylbenzamide] has a PF50 (Jurkat cell line) of 1.3 and an IC50 (PARP) of over 200 nM.

Work on `CCCc1cc(CN2CCN(c3ccc(C(=O)NC)cc3)CC2)cc2c1OC(C)C(=O)N2` (centres unmarked) [Compound 358, N-Methyl-4-(4-((2-methyl-3-oxo-8-propyl-3,4-dihydro-2H-benzo[b][1,4]oxazin-6-yl)methyl)piperazin-1-yl)benzamide] yielded a PF50 (Jurkat cell line) of over 3.0 and an IC50 (PARP) of over 200 nM.

`CCNC(=O)c1ccc(N2CCN(Cc3cc(O)c4c(c3)NC(=O)C(C)O4)CC2)cc1` (centres unmarked) [Compound 359, N-Ethyl-4-(4-((8-hydroxy-2-methyl-3-oxo-3,4-dihydro-2H-benzo[b][1,4]oxazin-6-yl)methyl)piperazin-1-yl)benzamide] gave a PF50 (Jurkat cell line) of over 6.0 and an IC50 (PARP) of 15.8 nM.

Compound `CCNC(=O)c1ccc(N2CCN(Cc3cc4c(c(OC)c3)OC(C)C(=O)N4)CC2)c(F)c1` (centres unmarked) [Compound 360, N-Ethyl-3-fluoro-4-(4-((8-methoxy-2-methyl-3-oxo-3,4-dihydro-2H-benzo[b][1,4]oxazin-6-yl)methyl)piperazin-1-yl)benzamide] has a PF50 (Jurkat cell line) of 3.1 and an IC50 (PARP) of 39.8 nM.

`CCNC(=O)c1ccc(N2CCN(Cc3cc4c(c(OC)c3)OC(C)C(=O)N4)CC2)c(Cl)c1` (centres unmarked) [Compound 361, 3-Chloro-N-ethyl-4-(4-((8-methoxy-2-methyl-3-oxo-3,4-dihydro-2H-benzo[b][1,4]oxazin-6-yl)methyl)piperazin-1-yl)benzamide] showed a PF50 (Jurkat cell line) of over 3500 and an IC50 (PARP) of 25.1 nM.

`CNC(=O)c1ccc(N2CCN(Cc3cc4c(c(OC)c3)OC(C)C(=O)N4)CC2)c(C)c1` (centres unmarked) [Compound 362, 4-(4-((8-Methoxy-2-methyl-3-oxo-3,4-dihydro-2H-benzo[b][1,4]oxazin-6-yl)methyl)piperazin-1-yl)-N,3-dimethylbenzamide] was tested, and the PF50 (Jurkat cell line) was over 1700 and the IC50 (PARP) was 31.6 nM.

With `CCNC(=O)c1ccc(N2CCN(Cc3cc4c(c(OC)c3)OC(C)C(=O)N4)CC2)c(C)c1` (centres unmarked) [Compound 363, N-ethyl-4-(4-((8-methoxy-2-methyl-3-oxo-3,4-dihydro-2H-benzo[b][1,4]oxazin-6-yl)methyl)piperazin-1-yl)-3-methylbenzamide] the PF50 (Jurkat cell line) was 6522 and the IC50 (PARP) was 31.6 nM.

`CNC(=O)c1ccc(N2CCN(Cc3cc4c(c(OC)c3)OC(C)C(=O)N4)CC2)c(F)c1` (centres unmarked) [Compound 365, 3-Fluoro-4-(4-((8-methoxy-2-methyl-3-oxo-3,4-dihydro-2H-benzo[b][1,4]oxazin-6-yl)methyl)piperazin-1-yl)-N-methylbenzamide] gave a PF50 (Jurkat cell line) of 1.3 and an IC50 (PARP) of 31.6 nM.

Compound `CNC(=O)c1ccc(N2CCN(Cc3cc4c(c(OC)c3)OC(C)C(=O)N4)CC2)c(Cl)c1` (centres unmarked) [Compound 366, 3-Chloro-4-(4-((8-methoxy-2-methyl-3-oxo-3,4-dihydro-2H-benzo[b][1,4]oxazin-6-yl)methyl)piperazin-1-yl)-N-methylbenzamide] has a PF50 (Jurkat cell line) of 4.6 and an IC50 (PARP) of 25.1 nM.

`CCNC(=O)c1ccc(N2CCN(Cc3ccc4c(c3)NC(=O)CO4)CC2)c(Cl)c1` [Compound 367, 3-Chloro-N-ethyl-4-(4-((3-oxo-3,4-dihydro-2H-benzo[b][1,4]oxazin-6-yl)methyl)piperazin-1-yl)benzamide] gave a PF50 (Jurkat cell line) of 2.5 and an IC50 (PARP) of over 200 nM.

`CCNC(=O)c1ccc(N2CCN(Cc3cc4c(c(OC)c3)OCC(=O)N4)CC2)c(Cl)c1` [Compound 370, 3-Chloro-N-ethyl-4-(4-((8-methoxy-3-oxo-3,4-dihydro-2H-benzo[b][1,4]oxazin-6-yl)methyl)piperazin-1-yl)benzamide] was tested, and the PF50 (Jurkat cell line) was 5.0 and the IC50 (PARP) was 79.4 nM.

`CCNC(=O)c1ccc(N2CCN(Cc3ccc4c(c3)NC(=O)C(C)O4)CC2)c(Cl)c1` (centres unmarked) [Compound 371, 3-Chloro-N-ethyl-4-(4-((2-methyl-3-oxo-3,4-dihydro-2H-benzo[b][1,4]oxazin-6-yl)methyl)piperazin-1-yl)benzamide] showed a PF50 (Jurkat cell line) of over 20 and an IC50 (PARP) of 15.8 nM.

With `COc1cc(CN2CCN(c3ccc(C(=O)NC4CC4)cc3F)CC2)cc2c1OC(C)C(=O)N2` (centres unmarked) [Compound 372, N-Cyclopropyl-3-fluoro-4-{4-[(8-methoxy-2-methyl-3-oxo-3,4-dihydro-2H-1,4-benzoxazin-6-yl)methyl]piperazin-1-yl}benzamide] the PF50 (Jurkat cell line) was 1.0 and the IC50 (PARP) was 20 nM.

Compound `COc1cc(CN2CCN(c3ccc(C(=O)NC4CC4)cc3Cl)CC2)cc2c1OC(C)C(=O)N2` (centres unmarked) [Compound 373, 3-Chloro-N-cyclopropyl-4-(4-((8-methoxy-2-methyl-3-oxo-3,4-dihydro-2H-benzo[b][1,4]oxazin-6-yl)methyl)piperazin-1-yl)benzamide] has a PF50 (Jurkat cell line) of 3.2 and an IC50 (PARP) of 20 nM.

For `CCNC(=O)c1ccc(N2CCN(Cc3cc4c(c(OC)c3)OCC(=O)N4)CC2)c(C)c1` [Compound 374, N-Ethyl-4-(4-((8-methoxy-3-oxo-3,4-dihydro-2H-benzo[b][1,4]oxazin-6-yl)methyl)piperazin-1-yl)-3-methylbenzamide], the PF50 (Jurkat cell line) was under 2.0 and the IC50 (PARP) was 31.6 nM.

With `COc1cc(CN2CCN(c3ccc(C(=O)NC4CC4)cc3C)CC2)cc2c1OCC(=O)N2` [Compound 375, N-cyclopropyl-4-(4-((8-methoxy-3-oxo-3,4-dihydro-2H-benzo[b][1,4]oxazin-6-yl)methyl)piperazin-1-yl)-3-methylbenzamide] the PF50 (Jurkat cell line) was over 2.0 and the IC50 (PARP) was 15.8 nM.

For `CNC(=O)c1ccc(N2CCN(Cc3cc4c(c(OC)c3)OCC(=O)N4)CC2)c(C)c1` [Compound 376, 4-(4-((8-Methoxy-3-oxo-3,4-dihydro-2H-benzo[b][1,4]oxazin-6-yl)methyl)piperazin-1-yl)-N,3-dimethylbenzamide], the PF50 (Jurkat cell line) was over 6.0 and the IC50 (PARP) was 15.8 nM.

With `CC1Oc2ccc(CN3CCN(c4ccc(C(=O)N5CCCC5)cc4)CC3)cc2NC1=O` (centres unmarked) [Compound 377, 2-Methyl-6-((4-(4-(pyrrolidine-1-carbonyl)phenyl)piperazin-1-yl)methyl)-2H-benzo[b][1,4]oxazin-3(4H)-one] the PF50 (Jurkat cell line) was 1.0 and the IC50 (PARP) was over 200 nM.

Compound `CNC(=O)c1ccc(N2CCN(Cc3cc(C)c4c(c3)NC(=O)C(C)O4)CC2)c(F)c1` (centres unmarked) [Compound 380, 4-(4-((2,8-Dimethyl-3-oxo-3,4-dihydro-2H-benzo[b][1,4]oxazin-6-yl)methyl)piperazin-1-yl)-3-fluoro-N-methylbenzamide] has a PF50 (Jurkat cell line) of 4.0 and an IC50 (PARP) of 50.1 nM.

In the case of `CCNC(=O)c1ccc(N2CCN(Cc3cc(C)c4c(c3)NC(=O)C(C)O4)CC2)c(F)c1` (centres unmarked) [Compound 381, 4-(4-((2,8-Dimethyl-3-oxo-3,4-dihydro-2H-benzo[b][1,4]oxazin-6-yl)methyl)piperazin-1-yl)-N-ethyl-3-fluorobenzamide], the PF50 (Jurkat cell line) is reported as over 2 and the IC50 (PARP) is reported as 39.8 nM.
